Data published in the supplement of paper PMC10307832.

Experiments:
Assay in all cases: relative viability (nuclei count vs DMSO), 5 days (fraction); higher = more cells survive
IDH-C35 + Trametinib = compound: Cc1ccccc1C(C(=O)NC1CCCCC1)N(C(=O)Cn1ccnc1C)c1cccc(F)c1 [IDH-C35] + CC(=O)Nc1cccc(-n2c(=O)n(C3CC3)c(=O)c3c(Nc4ccc(I)cc4F)n(C)c(=O)c(C)c32)c1 [Trametinib] (partner 0.02 µM)
Outline: (§1)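 Lung cancer cell lines, seeded in 1536-well plates, were treated the following day by pin tool with a single drug or with five library-drug doses (not always all listed) in √10 steps on top of a fixed anchor-drug dose. Cells were fixed and nuclei stained in one step after 5 days, and nuclei were counted. Relative viability is the nuclei count for treated wells divided by that for vehicle wells, reported as medians of duplicate plates.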

[1] = compound: CC1=C(C(=NN1)C)CC2=C(C3=C(S2)N(C(=O)N(C3=O)C)CC(C)C)C(=O)N4C[C@@H](CO4)O + COc1cc2c(Oc3ccc(NC(=O)C4(C(=O)Nc5ccc(F)cc5)CC4)cc3F)ccnc2cc1OCCCN1CCOCC1 [Foretinib] (partner 0.25 µM)
Outline: as §1

[2] = compound: CC1=C(C(=NN1)C)CC2=C(C3=C(S2)N(C(=O)N(C3=O)C)CC(C)C)C(=O)N4C[C@@H](CO4)O + O=C(CCCCCCC(=O)Nc1ccccc1)NO [Vorinostat] (partner 1 µM)
Outline: as §1

IDH-C35 + Navitoclax = compound: Cc1ccccc1C(C(=O)NC1CCCCC1)N(C(=O)Cn1ccnc1C)c1cccc(F)c1 [IDH-C35] + CC1(C)CCC(c2ccc(Cl)cc2)=C(CN2CCN(c3ccc(C(=O)NS(=O)(=O)c4ccc(N[C@H](CCN5CCOCC5)CSc5ccccc5)c(S(=O)(=O)C(F)(F)F)c4)cc3)CC2)C1 [Navitoclax] (partner 0.5 µM)
Outline: as §1

Cell Line	relative viability (IDH-C35 + Trametinib; first compound 0.08 µM)	relative viability (IDH-C35 + Trametinib; first compound 0.253 µM)	relative viability (IDH-C35 + Trametinib; first compound 0.8 µM)	relative viability (IDH-C35 + Trametinib; first compound 2.53 µM)	relative viability (IDH-C35 + Trametinib; first compound 8 µM)	relative viability ([1]; first compound 0.0025 µM)	relative viability ([1]; first compound 0.007906 µM)	relative viability ([1]; first compound 0.025 µM)	relative viability ([1]; first compound 0.07906 µM)	relative viability ([1]; first compound 0.25 µM)	relative viability ([2]; first compound 0.0025 µM)	relative viability ([2]; first compound 0.007906 µM)	relative viability ([2]; first compound 0.025 µM)	relative viability ([2]; first compound 0.07906 µM)	relative viability ([2]; first compound 0.25 µM)	relative viability (IDH-C35 + Navitoclax; first compound 0.08 µM)	relative viability (IDH-C35 + Navitoclax; first compound 0.253 µM)	relative viability (IDH-C35 + Navitoclax; first compound 0.8 µM)	relative viability (IDH-C35 + Navitoclax; first compound 2.53 µM)	relative viability (IDH-C35 + Navitoclax; first compound 8 µM)
HARA	0.562	0.649	0.601	0.56	0.76	1	1.01	0.84	0.656	0.984	0.511	0.657	0.653	0.516	0.509	1.08	1.14	1.14	1.12	1.14
HCC-15	0.37	0.395	0.428		0.371	1.05	0.989	0.961	1.03	1.2	1.04	0.829	0.839	0.875	0.81	0.69	0.692	0.708	0.632	0.606
HCC-44	1.01	1.04	1.09	1.14	1.04						1.08	1.12	1.03	1.05	1.18	0.927	1.02	1.02	0.953	0.952
HCC-78	0.757	0.869	0.777	0.713	0.761	0.579	0.572	0.601	0.527	0.563	0.521	0.552	0.497	0.518	0.439	0.86	0.762	0.763	0.62	0.656
HCC-366	0.293	0.376	0.407	0.303	0.31	0.918	0.932	0.905	0.771	0.958	0.438	0.365	0.348	0.399	0.447	0.937	1.13	1.03	0.981	1.01
HCC-827	0.525	0.583	0.462	0.519	0.512	1.02	1.09	1.01	1.02	1.02	0.805	0.91	0.837	0.843	1.01	0.975	0.997	1.05	0.949	1.03
IA-LM						1.25	1.01	1.2	1.25	1.14	0.91	1.19		0.942	1.08	0.711	0.838	0.798	0.742	0.707
LCLC-103H	0.704	0.672	0.727	0.656	0.7	0.89	0.672	0.817	0.84	1.02	0.871	0.896	0.792	0.772	0.689					
NCI-H358	0.132	0.152	0.128	0.159	0.144	0.636	0.76	0.664	0.766	0.791	0.704	0.575	0.677	0.803	0.836					
NCI-H522	0.767	0.8	0.643	0.796	0.695						0.963	1.03	0.682	0.551	0.551					
NCI-H650	1.03	0.935	0.861		0.914	1.07	0.937	0.938	0.977	1.08	0.549	0.516	0.393	0.35	0.545					
NCI-H661	0.592	0.575	0.548	0.557	0.561	1	0.97	0.95	0.978	0.998	0.787	0.863	0.746	0.805	0.834					
NCI-H1299						1.06	1.11	1.06	1.1	1.09						1.02	1.08	1.02	1.05	1.03
NCI-H1563						0.933	0.969	0.967	0.933	0.936										
NCI-H1623						0.985	0.788	0.997	0.805	0.749										
NCI-H1648		0.566	0.465	0.479	0.584						0.787	0.413	0.42	0.406	0.441					
NCI-H1703						0.38	0.391	0.386	0.329	0.362						1.05	1.29	1.49	1.11	0.897
NCI-H1792	0.393	0.338	0.485	0.405	0.544											0.637	0.593	0.619	0.621	0.646
NCI-H2342	0.771	0.762	0.769	0.767	0.736	1.14	1.04	0.893	0.998	1.01	0.611	0.766	0.709	0.656	0.644					
SW 900	0.855	0.773		0.91	0.767	1.01	1.06	0.671	0.834	1.06	0.558	0.55	0.534	0.504	0.445					
